# Patent US20060100284A1, “Growth promotor” (priority 2002, published 2006)
# Assays:
# slaughter animals = details: Kirchgessner et al. 1995; cited from earlier work
# [1] = test system: weaned pigs and growing swine; test: Swine feeding test with feed additives; format: in vivo
# Description: The composition of the invention was tested using weaned pigs and growing swine. The test comprised a total of 240 swine from 30 different litters. […] The composition of the invention was compared to a control without additives and to an antibiotic feed additive (Avilamycin) at the weaning and growth stage.
# [2] = test system: weaned pigs and swine grown for pork meat; details: Partanen et al. 2002; cited from earlier work
# [3] = Growth and final growth stage, additive in feed (6 g/kg for acids)
# [4] = Weaning stage, additive in feed (8 g/kg for acids)
Compound,increase in weight of slaughter animals (slaughter animals),"Daily growth [1, 3]","Final weight [1, 3]","Daily growth [1, 4]","Final weight [1, 4]",growth promoter effect in feed [2]
C/C=C/C=C/C(=O)O [sorbic acid],enhanced,,,,,
"O=CO [F, formic acid]",,869 g/day,106.0 kg,308 g/day,18.5 kg,acts as a growth promoter
avilamycin,,845 g/day,107.1 kg,335 g/day,19.3 kg,
